The results in this text go back to PubChem BioAssay (NCI).

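These data come from cells grown in 96-well plates and exposed to compound for 48 hours at five concentrations. At the GI50, growth is halved. TGI marks complete inhibition of growth.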 Some results are limits rather than exact numbers.

Among the test systems are RXF 393 renal; SN12C renal; HCC-2998 colon; MDA-MB-231 breast; TK-10 renal; KM12 colon; SK-MEL-2 melanoma; T-47D breast; A498 renal; HOP-62 NSCLC.
What all share (test): NCI anticancer screen, dose series, 48 h

As to `CCC(=O)Nc1ncnc2ncn(C(=O)CC)c12`, the TGI in the assay with RXF 393 renal, with SN12C renal, in the assay with HCC-2998 colon, with MDA-MB-231 breast, in the assay with TK-10 renal and in the assay on KM12 colon was above 100 µM each time. The TGI with SK-MEL-2 melanoma, in the assay on T-47D breast, in the assay with A498 renal and in the assay on HOP-62 NSCLC was above 100 µM in each case.

As to `O=C(Nc1ccc(-n2ccc3c(NC(=O)c4ccccc4)nccc32)cc1)c1ccc(N2CCOCC2)c(C(F)(F)F)c1`, the GI50 with RXF 393 renal is 0.194 µM; in the assay on SN12C renal, 3.93 µM; in the assay with HCC-2998 colon it was 0.6 µM; with MDA-MB-231 breast it was 4.07 µM; in the assay on TK-10 renal it was 0.449 µM; in the assay with KM12 colon it was 0.0707 µM. Moreover, the GI50 is 0.236 µM with SK-MEL-2 melanoma, 2.65 µM in the assay on T-47D breast, 2.19 µM in the assay with A498 renal and 1.74 µM in the assay with HOP-62 NSCLC. Also, the TGI is 1.48 µM with RXF 393 renal; above 100 µM with SN12C renal; above 53 µM with HCC-2998 colon; above 60.9 µM with MDA-MB-231 breast; 26.1 µM in the assay with TK-10 renal; 18 µM in the assay on KM12 colon. For the same compound, the TGI in the assay on SK-MEL-2 melanoma is 15.8 µM; in the assay on T-47D breast it was above 41.1 µM; with A498 renal, 26.6 µM; in the assay with HOP-62 NSCLC, 23.1 µM.

For `CC(C)Cc1ccc(C(C)/C=C2\CCC(CN3CCCCC3)C2=O)cc1` (centres undefined), the TGI with RXF 393 renal came to 5.73 µM; with SN12C renal, 4.44 µM; in the assay with HCC-2998 colon, 17.7 µM; in the assay with MDA-MB-231 breast it was 17.2 µM; in the assay on TK-10 renal, 8.95 µM; in the assay with KM12 colon, 6.36 µM. Moreover, the TGI with SK-MEL-2 melanoma was found to be 27 µM; with T-47D breast, 45.5 µM; with A498 renal it was 28.2 µM; in the assay on HOP-62 NSCLC, 17.6 µM.

For the compound `Cc1ccc2c(c1)-c1oc(=O)c(-c3cc4ccccc4oc3=O)cc1C(O)O2` (centres undefined), the GI50 is 12.8 µM with RXF 393 renal; 19.7 µM with SN12C renal; 18.5 µM with HCC-2998 colon; 15.2 µM in the assay with MDA-MB-231 breast; 16.3 µM in the assay with TK-10 renal; 19.6 µM in the assay with KM12 colon. For the same compound, the GI50 with SK-MEL-2 melanoma is 16.9 µM; with T-47D breast, 21.3 µM; in the assay on A498 renal, 16.2 µM; with HOP-62 NSCLC, 22.9 µM. Also, the TGI in the assay on RXF 393 renal was 48.2 µM; with SN12C renal, 45 µM; in the assay with HCC-2998 colon, 36.2 µM; in the assay on MDA-MB-231 breast, 43.7 µM; in the assay on TK-10 renal, 34.9 µM; with KM12 colon it was 48.3 µM. For the same compound, the TGI with SK-MEL-2 melanoma was 42.1 µM; with T-47D breast it was 41.7 µM; in the assay with A498 renal it was 30.3 µM; with HOP-62 NSCLC, 41.4 µM.

Consider `CCN(CC)CCC(=O)N1C/C(=C/c2ccccc2)C(=O)/C(=C\c2ccccc2)C1`, for which the TGI in the assay with RXF 393 renal was 2.99 µM; in the assay with SN12C renal it was 3.39 µM; with HCC-2998 colon, 1.94 µM; with MDA-MB-231 breast it was 2.57 µM; with TK-10 renal it was 18.4 µM; in the assay with KM12 colon it was 2.51 µM. The TGI with SK-MEL-2 melanoma worked out at 5.08 µM; with T-47D breast, 4.07 µM; in the assay with A498 renal, 11 µM; with HOP-62 NSCLC, 26.1 µM.

As to `NC(Cc1c[nH]c2cc(F)ccc12)C(=O)O` (centres undefined), the GI50 was 1450 µM in the assay with RXF 393 renal; 1330 µM in the assay on SN12C renal; 1640 µM in the assay with HCC-2998 colon; 1460 µM in the assay with MDA-MB-231 breast; above 2500 µM in the assay with TK-10 renal; 1180 µM with KM12 colon. Further, the GI50 is 1910 µM in the assay on SK-MEL-2 melanoma, above 2500 µM with T-47D breast, above 2500 µM in the assay with A498 renal and 961 µM in the assay with HOP-62 NSCLC. For the same compound, the TGI in the assay with RXF 393 renal, in the assay on SN12C renal, in the assay on HCC-2998 colon, in the assay on MDA-MB-231 breast, in the assay with TK-10 renal and with KM12 colon was above 2500 µM throughout. In addition, the TGI with SK-MEL-2 melanoma, in the assay with T-47D breast, with A498 renal and in the assay with HOP-62 NSCLC was above 2500 µM in each case.

Turning to `CC(C)C1=CC23CCC4C(C)(C(=O)O)CCCC4(C)C2CC1C1C(=O)N(c2cccc(N4C(=O)C5C6CC7C8(C)CCCC(C)(C(=O)O)C8CCC7(C=C6C(C)C)C5C4=O)c2)C(=O)C13` (centres undefined), the TGI with RXF 393 renal turned out to be 27 µM; in the assay on SN12C renal, 27.1 µM; in the assay with HCC-2998 colon it was 20.3 µM; with MDA-MB-231 breast, 39.2 µM; in the assay on TK-10 renal, 30.4 µM; in the assay on KM12 colon, 9.7 µM. Moreover, the TGI in the assay on SK-MEL-2 melanoma amounted to 29.9 µM; with T-47D breast, 33.7 µM; in the assay on A498 renal, 26.7 µM; in the assay with HOP-62 NSCLC it was 25.2 µM.

For the compound `O=C1c2ccccc2-c2c1c1ccc([N+](=O)[O-])cc1c(=O)n2CCCn1ccnc1`, the GI50 in the assay on RXF 393 renal is 0.16 µM; in the assay with SN12C renal, 0.0153 µM; with HCC-2998 colon it was 2 µM; with MDA-MB-231 breast it was 0.15 µM; with TK-10 renal, 1.16 µM; in the assay with KM12 colon, 0.0227 µM. In addition, the GI50 in the assay with SK-MEL-2 melanoma is 1.06 µM; with A498 renal, 0.525 µM; in the assay on HOP-62 NSCLC, 0.173 µM. For the same compound, the TGI turned out to be 2.43 µM in the assay with RXF 393 renal; 0.0378 µM with SN12C renal; 5.57 µM in the assay on HCC-2998 colon; 0.408 µM in the assay with MDA-MB-231 breast; 9.31 µM in the assay with TK-10 renal; 1.25 µM with KM12 colon. For the same compound, the TGI in the assay on SK-MEL-2 melanoma is 3.27 µM; in the assay with T-47D breast, above 33.3 µM; in the assay on A498 renal, 8.88 µM; with HOP-62 NSCLC, 0.708 µM.

Regarding `COC(=O)CCCNC(=O)C(=O)c1c(O)c(O)c(C(C)C)c2cc(C)c(-c3c(C)cc4c(C(C)C)c(O)c(O)c(C(=O)C(=O)NCCCC(=O)OC)c4c3O)c(O)c12`, the GI50 in the assay with RXF 393 renal was 0.651 µM; with SN12C renal, 0.844 µM; with HCC-2998 colon, 0.679 µM; with MDA-MB-231 breast, 0.743 µM; with TK-10 renal it was 0.34 µM; with KM12 colon it was 0.164 µM. Besides, the GI50 in the assay on SK-MEL-2 melanoma was 0.858 µM; with T-47D breast, 0.558 µM; in the assay with A498 renal, 1.36 µM; in the assay with HOP-62 NSCLC, 0.942 µM. Besides, the TGI turned out to be 5 µM in the assay on RXF 393 renal; 6.85 µM in the assay with SN12C renal; 7.98 µM in the assay with HCC-2998 colon; 2.99 µM in the assay with MDA-MB-231 breast; 2.73 µM with TK-10 renal; 4.58 µM in the assay with KM12 colon. Further, the TGI is 2.93 µM in the assay on SK-MEL-2 melanoma, 3.06 µM with T-47D breast, 14.3 µM with A498 renal and 4.21 µM with HOP-62 NSCLC.

As for `CN1CCN(Cc2ccc(NC(=O)c3cccc(C#Cc4c(N)ncc5ccc(F)cc45)c3)cc2C(F)(F)F)CC1`, the GI50 with RXF 393 renal is 0.697 µM; in the assay with SN12C renal, 0.663 µM; with HCC-2998 colon, 0.969 µM; with MDA-MB-231 breast, 0.545 µM; in the assay with TK-10 renal it was 1.14 µM; with KM12 colon, 0.121 µM. Also, the GI50 with SK-MEL-2 melanoma was 0.923 µM; with T-47D breast, 1.05 µM; with A498 renal, 0.578 µM; with HOP-62 NSCLC it was 0.795 µM. The TGI with RXF 393 renal was 1.4 µM; with SN12C renal, 1.44 µM; in the assay on HCC-2998 colon it was 1.84 µM; with MDA-MB-231 breast, 1.21 µM; in the assay with TK-10 renal it was 2.35 µM; in the assay with KM12 colon, 0.754 µM. In addition, the TGI in the assay with SK-MEL-2 melanoma came out at 2.09 µM; with T-47D breast, 2.65 µM; in the assay on A498 renal, 1.26 µM; in the assay with HOP-62 NSCLC it was 1.65 µM.

Regarding `COc1ccc(C[C@H]2NC[C@H](O)[C@H]2OC(C)=O)cc1`, the TGI with RXF 393 renal was determined as 0.399 µM; in the assay with SN12C renal, 0.253 µM; in the assay with HCC-2998 colon it was 0.0862 µM; in the assay on MDA-MB-231 breast, 0.079 µM; with TK-10 renal it was 0.397 µM; with KM12 colon, 0.211 µM. The TGI with SK-MEL-2 melanoma amounted to 0.398 µM; with T-47D breast it was 0.754 µM; with A498 renal, 0.32 µM; in the assay with HOP-62 NSCLC it was 0.193 µM.
